Reference: PubChem BioAssay (NCI)
Values joined by “and” are separate entries in the source; they are usually repeats but may differ in a detail not shown here. Equal values may be shown once.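 Each compound was tested at five concentrations against cells in 96-well plates for 48 hours. Here, GI50 denotes the concentration required for 50% inhibition of growth. TGI marks complete inhibition of growth.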

Assays:
Test in all cases: NCI anticancer screen, dose series, 48 h
RPMI-8226 leukemia = system: RPMI-8226 leukemia
SK-MEL-5 melanoma = system: SK-MEL-5 melanoma
SW-620 colon = system: SW-620 colon
SNB-19 CNS = system: SNB-19 CNS
A549 NSCLC = system: A549 NSCLC
M14 melanoma = system: M14 melanoma
UACC-62 melanoma = system: UACC-62 melanoma
EKVX NSCLC = system: EKVX NSCLC
SNB-75 CNS = system: SNB-75 CNS
OVCAR-5 ovarian = system: OVCAR-5 ovarian

In the case of `COc1ccc(S(=O)(=O)N/N=C/CN2C(=O)c3ccccc3C2=O)cc1`, the TGI (RPMI-8226 leukemia) is reported as > 100 µM, the TGI (SK-MEL-5 melanoma) is reported as > 100 µM and the TGI (SW-620 colon) is reported as > 100 µM. For the same compound, the TGI (SNB-19 CNS) was > 100 µM, the TGI (A549 NSCLC) was > 100 µM and the TGI (M14 melanoma) was > 100 µM. The TGI (UACC-62 melanoma) was > 100 µM, the TGI (EKVX NSCLC) was > 100 µM and the TGI (SNB-75 CNS) was > 100 µM.
In the case of `O=[N+]([O-])c1ccc2nc(=S)[nH]n2c1`, the TGI (RPMI-8226 leukemia) is reported as > 100 µM, the TGI (SK-MEL-5 melanoma) is reported as > 100 µM and the TGI (SW-620 colon) is reported as > 100 µM. For the same compound, the TGI (SNB-19 CNS) was > 100 µM, the TGI (A549 NSCLC) was > 100 µM and the TGI (M14 melanoma) was > 100 µM. The TGI (UACC-62 melanoma) was > 100 µM, the TGI (EKVX NSCLC) was > 100 µM and the TGI (SNB-75 CNS) was > 100 µM. For the same compound, the TGI (OVCAR-5 ovarian) was > 100 µM.
In the case of `COc1c(OC2OC(CO)C(O)C(O)C2O)cc2c(c1OC)-c1ccc(OC)c(=O)cc1[C@@H](NC(C)=O)CC2` (stereo partly drawn), the TGI (RPMI-8226 leukemia) is reported as > 100 µM, the TGI (SK-MEL-5 melanoma) is reported as > 94.5 µM and the TGI (SW-620 colon) is reported as > 100 µM. For the same compound, the TGI (SNB-19 CNS) was > 100 µM, the TGI (A549 NSCLC) was > 100 µM and the TGI (M14 melanoma) was > 100 µM. The TGI (UACC-62 melanoma) was > 100 µM, the TGI (EKVX NSCLC) was > 100 µM and the TGI (SNB-75 CNS) was 84.4 µM. For the same compound, the TGI (OVCAR-5 ovarian) was > 100 µM.
In the case of `CCCCCC/C(CC(=O)CCC(=O)NCCc1ccccc1)=N\NC(=O)c1ccc2ccccc2c1O`, the TGI (RPMI-8226 leukemia) is reported as > 100 µM, the TGI (SK-MEL-5 melanoma) is reported as 69.5 µM and the TGI (SW-620 colon) is reported as > 100 µM. The TGI (SNB-19 CNS) was > 100 µM, the TGI (A549 NSCLC) was > 100 µM and the TGI (M14 melanoma) was > 100 µM. For the same compound, the TGI (UACC-62 melanoma) was 50.8 µM, the TGI (EKVX NSCLC) was > 100 µM and the TGI (SNB-75 CNS) was > 100 µM. The TGI (OVCAR-5 ovarian) was 54.2 µM.
`CCCCCCC(=O)CC(=O)C(=O)Nc1ccccc1C` was tested, and the TGI (RPMI-8226 leukemia) was > 100 µM, the TGI (SK-MEL-5 melanoma) was > 100 µM and the TGI (SW-620 colon) was > 59.4 µM. For the same compound, the TGI (SNB-19 CNS) was > 100 µM, the TGI (A549 NSCLC) was > 100 µM and the TGI (M14 melanoma) was > 100 µM. For the same compound, the TGI (UACC-62 melanoma) was > 100 µM, the TGI (EKVX NSCLC) was > 100 µM and the TGI (SNB-75 CNS) was > 100 µM. For the same compound, the TGI (OVCAR-5 ovarian) was > 100 µM.
In the case of `CCC(=O)Oc1ccc(/C=N/NC(N)=S)nc1`, the GI50 (RPMI-8226 leukemia) is reported as 28.5 µM, the TGI (RPMI-8226 leukemia) is reported as > 100 µM and the GI50 (SK-MEL-5 melanoma) is reported as 3.01 µM. The TGI (SK-MEL-5 melanoma) was 77.2 µM, the GI50 (SW-620 colon) was 7.67 µM and the TGI (SW-620 colon) was > 100 µM. The GI50 (SNB-19 CNS) was 14.2 µM, the TGI (SNB-19 CNS) was > 100 µM and the GI50 (A549 NSCLC) was 35.4 µM. For the same compound, the TGI (A549 NSCLC) was > 100 µM, the GI50 (M14 melanoma) was 2.01 µM and the TGI (M14 melanoma) was 5.59 µM. For the same compound, the GI50 (UACC-62 melanoma) was 3.43 µM, the TGI (UACC-62 melanoma) was > 100 µM and the GI50 (EKVX NSCLC) was 43.7 µM. For the same compound, the TGI (EKVX NSCLC) was > 100 µM, the GI50 (SNB-75 CNS) was 6.13 µM and the TGI (SNB-75 CNS) was > 100 µM. The GI50 (OVCAR-5 ovarian) was 34 µM and the TGI (OVCAR-5 ovarian) was > 100 µM.
In the case of `Nc1nc(Cl)c2ncn(Cc3ccc(-c4ccc(CCl)cc4)cc3)c2n1`, the GI50 (RPMI-8226 leukemia) is reported as 1.43 µM, the TGI (RPMI-8226 leukemia) is reported as 5.58 µM and the GI50 (SK-MEL-5 melanoma) is reported as 4.42 µM. The TGI (SK-MEL-5 melanoma) was 18.9 µM, the GI50 (SW-620 colon) was 14.1 µM and the TGI (SW-620 colon) was 76.1 µM. For the same compound, the GI50 (SNB-19 CNS) was 38.4 µM, the TGI (SNB-19 CNS) was > 100 µM and the GI50 (A549 NSCLC) was 19.3 µM. For the same compound, the TGI (A549 NSCLC) was > 100 µM, the GI50 (M14 melanoma) was 13.3 µM and the TGI (M14 melanoma) was 29.4 µM. It also gave a GI50 (UACC-62 melanoma) of 9.26 µM, a TGI (UACC-62 melanoma) of 23 µM and a GI50 (EKVX NSCLC) of 10.6 µM. The TGI (EKVX NSCLC) was 40.1 µM, the GI50 (SNB-75 CNS) was 10.3 µM and the TGI (SNB-75 CNS) was 28.1 µM. For the same compound, the GI50 (OVCAR-5 ovarian) was 20.8 µM and the TGI (OVCAR-5 ovarian) was > 100 µM.
`NC(N)=NC(N)=NCc1ccco1` was tested, and the GI50 (RPMI-8226 leukemia) was 818 µM, the GI50 (SK-MEL-5 melanoma) was 363 µM and 119 µM and the TGI (SK-MEL-5 melanoma) was > 1250 µM. For the same compound, the GI50 (SW-620 colon) was > 1250 µM, the TGI (SW-620 colon) was > 1250 µM and the GI50 (SNB-19 CNS) was > 1250 µM. For the same compound, the TGI (SNB-19 CNS) was > 1250 µM, the GI50 (A549 NSCLC) was 340 µM and 325 µM and the TGI (A549 NSCLC) was > 1250 µM. For the same compound, the GI50 (M14 melanoma) was > 1250 µM, the TGI (M14 melanoma) was > 1250 µM and the GI50 (UACC-62 melanoma) was 748 µM. The TGI (UACC-62 melanoma) was > 1250 µM, the GI50 (EKVX NSCLC) was 117 µM and 31.7 µM and the TGI (EKVX NSCLC) was > 1250 µM. For the same compound, the GI50 (SNB-75 CNS) was > 1250 µM, the TGI (SNB-75 CNS) was > 1250 µM and the GI50 (OVCAR-5 ovarian) was > 1250 µM. For the same compound, the TGI (OVCAR-5 ovarian) was > 1250 µM.
For `CC1(C)N=C(N)N=C(N)N1c1ccc(CCC(=O)Nc2cccc(S(=O)(=O)F)c2)cc1`, the GI50 (RPMI-8226 leukemia) was 36.4 µM, the TGI (RPMI-8226 leukemia) was > 100 µM and the GI50 (SK-MEL-5 melanoma) was 4.83 µM. The TGI (SK-MEL-5 melanoma) was > 100 µM, the GI50 (SW-620 colon) was 5.87 µM and the TGI (SW-620 colon) was > 100 µM. For the same compound, the GI50 (SNB-19 CNS) was 7.37 µM, the TGI (SNB-19 CNS) was > 100 µM and the GI50 (A549 NSCLC) was 3.32 µM. For the same compound, the TGI (A549 NSCLC) was > 100 µM, the GI50 (M14 melanoma) was 6.69 µM and the TGI (M14 melanoma) was > 100 µM. The GI50 (UACC-62 melanoma) was 5.3 µM, the TGI (UACC-62 melanoma) was > 100 µM and the GI50 (EKVX NSCLC) was > 100 µM. For the same compound, the TGI (EKVX NSCLC) was > 100 µM, the GI50 (SNB-75 CNS) was 5.34 µM and the TGI (SNB-75 CNS) was > 100 µM. The GI50 (OVCAR-5 ovarian) was > 100 µM and the TGI (OVCAR-5 ovarian) was > 100 µM.
`O=C(N/N=C/c1cccc(O)c1)c1ccc(C(F)(F)F)nc1Nc1cccc(C(F)(F)F)c1` was tested, and the GI50 (RPMI-8226 leukemia) was 1.32 µM, the TGI (RPMI-8226 leukemia) was 3.99 µM and the GI50 (SK-MEL-5 melanoma) was 1.21 µM. The TGI (SK-MEL-5 melanoma) was 2.44 µM, the GI50 (SW-620 colon) was 1.63 µM and the TGI (SW-620 colon) was 5.77 µM. It also gave a GI50 (SNB-19 CNS) of 2.51 µM, a TGI (SNB-19 CNS) of 12 µM and a GI50 (A549 NSCLC) of 2.43 µM. The TGI (A549 NSCLC) was 7.84 µM, the GI50 (M14 melanoma) was 1.89 µM and the TGI (M14 melanoma) was 5.02 µM. The GI50 (UACC-62 melanoma) was 1.81 µM, the TGI (UACC-62 melanoma) was 4.12 µM and the GI50 (EKVX NSCLC) was 1.01 µM. For the same compound, the TGI (EKVX NSCLC) was 3.37 µM, the GI50 (SNB-75 CNS) was 1.58 µM and the TGI (SNB-75 CNS) was 6.03 µM. The GI50 (OVCAR-5 ovarian) was 1.63 µM and the TGI (OVCAR-5 ovarian) was 5.67 µM.
`CCCCCCCCCCCCCCCC(N)c1ccccc1` (stereo not drawn) gave a GI50 (RPMI-8226 leukemia) of 2.09 µM, a TGI (RPMI-8226 leukemia) of 4.66 µM and a GI50 (SK-MEL-5 melanoma) of 1.67 µM. The TGI (SK-MEL-5 melanoma) was 3.23 µM, the GI50 (SW-620 colon) was 1.61 µM and the TGI (SW-620 colon) was 3.19 µM. The GI50 (A549 NSCLC) was 1.78 µM, the TGI (A549 NSCLC) was 3.56 µM and the GI50 (M14 melanoma) was 1.7 µM. For the same compound, the TGI (M14 melanoma) was 3.15 µM, the GI50 (UACC-62 melanoma) was 1.66 µM and the TGI (UACC-62 melanoma) was 3.21 µM. For the same compound, the GI50 (EKVX NSCLC) was 1.59 µM, the TGI (EKVX NSCLC) was 3.01 µM and the GI50 (SNB-75 CNS) was 1.27 µM. The TGI (SNB-75 CNS) was 2.88 µM, the GI50 (OVCAR-5 ovarian) was 1.49 µM and the TGI (OVCAR-5 ovarian) was 3.1 µM.
In the case of `OCC(O)C(OC1OC(CO)C(O)C(O)C1O)c1nn(-c2ccc(Cl)cc2)c2nc3cc(Cl)ccc3nc12` (stereo not drawn), the TGI (RPMI-8226 leukemia) is reported as > 100 µM, the TGI (SNB-19 CNS) is reported as > 100 µM and the TGI (M14 melanoma) is reported as > 100 µM. The TGI (UACC-62 melanoma) was > 100 µM, the TGI (EKVX NSCLC) was > 100 µM and the TGI (SNB-75 CNS) was > 100 µM. For the same compound, the TGI (OVCAR-5 ovarian) was > 100 µM.
